Measurements published in US7319103B2, “Non-imidazole tertiary amines as histamine 3 receptor inhibitors for the treatment of cognitive and sleep disorders, obesity and other CNS disorders” (Athersys, Inc., priority 2004, dated 2008).

Key:
[1] = biological target: mouse H3 receptor (Mus musculus, UniProt P58406); assay: Radioligand competition binding assay, mouse H3 receptor; settings: competition binding vs [3H]Nα-methylhistamine (~2 nM), membranes of cells expressing mouse H3 receptor
Method: (§1) Representative compounds of the present invention that were prepared by the procedures of the Examples were evaluated in binding assays against cells expressing the mouse and human H3 receptor by the following procedure.
(§2) Cells were washed with cold PBS buffer twice, scraped off the plates, and centrifuged at 1000×g for 5 minutes. Cells were resuspended in ice-cold buffer of 10 mM Tris, pH 7.4, 5 mM EDTA, protease inhibitor cocktail tablets (Roche Molecular Biochemicals) and incubated on ice for 10 minutes. The mixture was then homogenized with a dounce homogenizer or a polytron tissue grinder and centrifuged at 1000×g for 10 min at 4° C. The supernatant was centrifuged at 32,000×g for 30 min at 4° C. The membrane pellet was resuspended in a buffer of 50 mM Tris, pH 7.4 with protease inhibitor cocktail tablets and stored at −80° C. until use. Protein concentration was determined by the methods of Bradford.
(§3) Membranes were homogenized in buffer containing 50 mM Tris/HCl, 1 mM EDTA pH 7.4, and protease inhibitor cocktail tablets. Dissociation constants of radioligand (KD values) and maximum binding sites (Bmax) were determined in saturation binding experiments. Ki and IC50 were determined in competition binding assays using a fixed amount of radioligand.
(§4) Saturation binding assays were carried out in 96-well polypropylene plates in triplicate or quadruplicate. Reaction mixtures contained 100 μl of membrane suspension (˜100 μg/well), 50 μl of 4% DMSO, 50 μl of increasing amounts of [^3H]N^α-methylhistamine (final concentration of 0.01-20 nM). Nonspecific binding was defined with 10 uM clobenpropit. Competition binding assays were performed in a reaction mixture containing 100 μl of membrane suspension, 50 μl of [H]N^α-methylhistamine (final concentration of ˜2 nM), and 50 μl compounds. […] Incubations were carried out for 1.5 hours at room temperature. Reactions were terminated by rapid filtration over glass fibre GF/C filters (Perkin Elmers, MA) that had been presoaked in 0.3% PEI, using a Brandel cell harvester. The filters were washed with 500 ml of ice-cold buffer containing 50 mM Tris-HCl, pH 7.4, and were subsequently dried, impregnated with Meltilex wax scintillate (Perkin Elmers, MA) and counted with a Betaplate scintillation counter (Perkin Elmers, MA).
(§5) All data were analyzed by nonlinear least square curve fitting using Prism 4.0 software. The KD for [^3H]N^α-methylhistamine and the Bmax were derived from equation RL=RfL/(KD+L). RL is concentration of receptor-bound ligand at equilibrium, L is the free ligand concentration, Rf is the total receptor concentration. For competition binding experiments, IC50 (the concentration of compound producing 50% inhibition of specific binding) was derived from fitting to a 4-parameter logistic equation. Apparent Ki values were calculated using the Cheng-Prussof equation of Ki=IC50/(1+(L)/Kd), L is the ligand concentration. Agonist stimulation and antagonist inhibition in FLIPR were fitted to sigmoidal dose response using equation Y=Bottom+(Top-Bottom)/(1+10^((LogEC50-X))), X is the logarithm of concentration of compounds. Y is the response.

[2] = biological target: T1, human H3 receptor (Homo sapiens, UniProt Q9Y5N1); assay: Radioligand competition binding assay, human H3 receptor (HT1080 cell membranes); settings: competition binding vs [3H]Nα-methylhistamine (~2 nM), membranes of HT1080 cells expressing human H3 receptor
T1 construct: Expression of this receptor was provided by utilization of the RAGE methodology; endogenous in cells; host or cells: HT1080 (human fibrosarcoma) cells, H3 expression switched on by RAGE; co-transfected with chimeric G-protein Gqαi5
Method: as §1
An HT1080 cell line was produced that expresses the human H3 receptor. Expression of this receptor was provided by utilization of the RAGE methodology (Harrington et al., 2001) Nature Biotechol. 19:440-5. This cell line was transfected with the chimeric G-protein Gqαi5 (Conklin et al., 1993) Nature 363:274-6 to facilitate assessment of receptor activation through the analysis of intercellular Ca^++ levels using a fluorescence assay. The HT1080 cells expressing human histamine H3 receptor and Gqαi5 were grown in alpha-modified MEM containing 10% FBS, 3 ug/ml puromycin, 7 ug/ml blasticidin, and 3.2 uM methotrexate at 37° C. in 5% CO2/95% atmosphere.
as §2, §3, §4, §5

mouse H3 receptor, sequence (P58406 whole entry): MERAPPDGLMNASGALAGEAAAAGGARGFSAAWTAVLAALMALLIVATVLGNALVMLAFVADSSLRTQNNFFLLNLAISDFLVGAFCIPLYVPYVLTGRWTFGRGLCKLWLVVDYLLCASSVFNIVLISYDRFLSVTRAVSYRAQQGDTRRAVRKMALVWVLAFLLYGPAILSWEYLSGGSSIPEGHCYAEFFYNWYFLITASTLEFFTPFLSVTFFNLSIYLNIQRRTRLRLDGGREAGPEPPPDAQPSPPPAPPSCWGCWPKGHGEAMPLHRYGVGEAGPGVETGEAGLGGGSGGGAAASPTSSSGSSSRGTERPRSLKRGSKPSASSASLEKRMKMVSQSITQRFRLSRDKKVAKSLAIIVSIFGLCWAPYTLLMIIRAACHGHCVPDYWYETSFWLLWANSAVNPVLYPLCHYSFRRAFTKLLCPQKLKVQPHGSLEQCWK
T1 sequence (Q9Y5N1 whole entry): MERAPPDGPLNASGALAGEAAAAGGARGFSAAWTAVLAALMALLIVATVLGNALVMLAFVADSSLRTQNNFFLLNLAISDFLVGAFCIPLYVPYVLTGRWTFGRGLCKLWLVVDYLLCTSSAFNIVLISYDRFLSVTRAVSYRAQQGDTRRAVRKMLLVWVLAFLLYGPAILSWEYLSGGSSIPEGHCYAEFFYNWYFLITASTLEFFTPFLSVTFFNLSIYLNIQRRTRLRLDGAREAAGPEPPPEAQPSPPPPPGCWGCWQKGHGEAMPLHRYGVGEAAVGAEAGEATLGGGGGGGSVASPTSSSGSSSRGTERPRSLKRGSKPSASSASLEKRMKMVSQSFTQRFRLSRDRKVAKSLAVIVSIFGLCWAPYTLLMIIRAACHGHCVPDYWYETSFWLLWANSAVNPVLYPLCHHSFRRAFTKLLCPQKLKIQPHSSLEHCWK

Compound	Ki [1]	Ki [2]
O[C@H]1CCN(CCc2cc3cc(-c4c5c(nc6ccnn46)CCC5)ccc3o2)C1 [1-{2-[5-(6,7-Dihydro-5H-1,4,8a-triaza-s-indacen-8-yl)-benzofuran-2-yl]-ethyl}-pyrrolidin-3-(S)-ol]	< 500 nM	< 50 nM
O[C@@H]1CCN(CCCOc2ccc(-c3c4c(nc5ccnn35)CCC4)cc2)C1 [1-{3-[4-(6,7-Dihydro-5H-1,4,8a-triaza-s-indacen-8-yl)-phenoxy]-propyl}-pyrrolidin-3-(R)-ol]	< 50 nM	< 50 nM
O[C@H]1CCN(CCCOc2ccc(-c3c4c(nc5ccnn35)CCC4)cc2)C1 [1-{3-[4-(6,7-Dihydro-5H-1,4,8a-triaza-s-indacen-8-yl)-phenoxy]-propyl}-pyrrolidin-3-(S)-ol]	< 50 nM	< 50 nM
c1cc2nc3c(c(-c4ccc5oc(CCN6CCOCC6)cc5c4)n2n1)CCC3 [8-[2-(2-Morpholin-4-yl-ethyl)-benzofuran-5-yl]-6,7-dihydro-5H-1,4,8a-triaza-s-indacene]	< 500 nM	< 50 nM
c1cc2nc3c(c(-c4ccc5oc(CCN6CCCCC6)cc5c4)n2n1)CCC3 [8-[2-(2-Piperidin-1-yl-ethyl)-benzofuran-5-yl]-6,7-dihydro-5H-1,4,8a-triaza-s-indacene]	< 500 nM	< 50 nM
c1cc2nc3c(c(-c4ccc5oc(CCN6CCCC6)cc5c4)n2n1)CCC3 [8-[2-(2-Pyrrolidin-1-yl-ethyl)-benzofuran-5-yl]-6,7-dihydro-5H-1,4,8a-triaza-s-indacene]	< 500 nM	< 50 nM
c1cc2nc3c(c(-c4ccc(OCCCN5CCOCC5)cc4)n2n1)CCC3 [8-[4-(3-Morpholin-4-yl-propoxy)-phenyl]-6,7-dihydro-5H-1,4,8a-triaza-s-indacene]	< 500 nM	< 50 nM
c1cc2nc3c(c(-c4ccc(OCCCN5CCCCC5)cc4)n2n1)CCC3 [8-[4-(3-Piperidin-1-yl-propoxy)-phenyl]-6,7-dihydro-5H-1,4,8a-triaza-s-indacene]	< 50 nM	< 50 nM
c1cc2nc3c(c(-c4ccc(OCCCN5CCCC5)cc4)n2n1)CCC3 [8-[4-(3-Pyrrolidin-1-yl-propoxy)-phenyl]-6,7-dihydro-5H-1,4,8a-triaza-s-indacene]	< 50 nM	< 50 nM
C[C@@H]1CCCN1CCc1cc2cc(-c3c4c(nc5ccnn35)CCC4)ccc2o1 [8-{2-[2-(2-(R)-Methyl-pyrrolidin-1-yl)-ethyl]-benzofuran-5-yl}-6,7-dihydro-5H-1,4,8a-triaza-s-indacene]	< 50 nM	< 50 nM
COC[C@@H]1CCCN1CCc1cc2cc(-c3c4c(nc5ccnn35)CCC4)ccc2o1 [8-{2-[2-(2-(S)-Methoxymethyl-pyrrolidin-1-yl)-ethyl]-benzofuran-5-yl}-6,7-dihydro-5H-1,4,8a-triaza-s-indacene]	< 50 nM	< 50 nM
CC1CCCN1CCc1cc2cc(-c3c4c(nc5ccnn35)CCC4)ccc2o1 (centres unmarked) [8-{2-[2-(2-Methyl-pyrrolidin-1-yl)-ethyl]-benzofuran-5-yl}-6,7-dihydro-5H-1,4,8a-triaza-s-indacene]	< 50 nM	< 50 nM
COC[C@H]1CCCN1CCc1cc2cc(-c3c4c(nc5ccnn35)CCC4)ccc2o1 [8-{2-[2-(R)-(2-Methoxymethyl-pyrrolidin-1-yl)-ethyl]-benzofuran-5-yl}-6,7-dihydro-5H-1,4,8a-triaza-s-indacene]	< 500 nM	< 500 nM
C[C@@H]1CCCN1CCCOc1ccc(-c2c3c(nc4ccnn24)CCC3)cc1Cl [8-{3-Chloro-4-[3-(2-(R)-methyl-pyrrolidin-1-yl)-propoxy]-phenyl}-6,7-dihydro-5H-1,4,8a-triaza-s-indacene]	< 50 nM	< 50 nM
CC1CCCN1CCCOc1ccc(-c2c3c(nc4ccnn24)COC3)cc1 (centres unmarked) [8-{4-[3-(2-Methyl-pyrrolidin-1-yl)-propoxy]-phenyl}-5H,7H-6-oxa-1,4,8a-triaza-s-indacene]	< 50 nM	< 50 nM
CC1CCCN1CCCOc1ccc(-c2c3c(nc4ccnn24)CCC3)cc1 (centres unmarked) [8-{4-[3-(2-Methyl-pyrrolidin-1-yl)-propoxy]-phenyl}-6,7-dihydro-5H-1,4,8a-triaza-s-indacene]	< 50 nM	< 50 nM
c1cc2nc3c(c(-c4ccc5oc(CCN6CCOCC6)cc5c4)n2n1)CCCC3 [9-[2-(2-Morpholin-4-yl-ethyl)-benzofuran-5-yl]-5,6,7,8-tetrahydro-pyrazolo[5,1-b]quinazoline]	< 500 nM	< 50 nM
c1cc2nc3c(c(-c4ccc5oc(CCN6CCCCC6)cc5c4)n2n1)CCCC3 [9-[2-(2-Piperidin-1-yl-ethyl)-benzofuran-5-yl]-5,6,7,8-tetrahydro-pyrazolo[5,1-b]quinazoline]	< 5000 nM	< 50 nM
c1cc2nc3c(c(-c4ccc5oc(CCN6CCCC6)cc5c4)n2n1)CCCC3 [9-[2-(2-Pyrrolidin-1-yl-ethyl)-benzofuran-5-yl]-5,6,7,8-tetrahydro-pyrazolo[5,1-b]quinazoline]	< 5000 nM	< 500 nM
c1cc2nc3c(c(-c4ccc(OCCCN5CCOCC5)cc4)n2n1)CCCC3 [9-[4-(3-Morpholin-4-yl-propoxy)-phenyl]-5,6,7,8-tetrahydro-pyrazolo[5,1-b]quinazoline]	< 50 nM	< 50 nM
c1cc2nc3c(c(-c4ccc(OCCCN5CCCCC5)cc4)n2n1)CCCC3 [9-[4-(3-Piperidin-1-yl-propoxy)-phenyl]-5,6,7,8-tetrahydro-pyrazolo[5,1-b]quinazoline]	< 50 nM	< 50 nM
c1ccc2c(-c3ccc(OCCCN4CCCC4)cc3)c3c(nc2c1)CCCC3 [9-[4-(3-Pyrrolidin-1-yl-propoxy)-phenyl]-1,2,3,4-tetrahydro-acridine]	< 500 nM	< 50 nM
c1cc2nc3c(c(-c4ccc(OCCCN5CCCC5)cc4)n2n1)CCCC3 [9-[4-(3-Pyrrolidin-1-yl-propoxy)-phenyl]-5,6,7,8-tetrahydro-pyrazolo[5,1-b]quinazoline]	< 50 nM	< 50 nM
CC1CCCN1CCc1cc2cc(-c3c4c(nc5ccnn35)CCCC4)ccc2o1 (centres unmarked) [9-{2-[2-(2-Methyl-pyrrolidin-1-yl)-ethyl]-benzofuran-5-yl}-5,6,7,8-tetrahydro-pyrazolo[5,1-b]quinazoline]	< 500 nM	< 50 nM
C[C@@H]1CCCN1CCCOc1ccc(-c2c3c(nc4ccnn24)CCCC3)cc1 [9-{4-[3-(2-(R)-Methyl-pyrrolidin-1-yl)-propoxy]-phenyl}-5,6,7,8-tetrahydro-pyrazolo[5,1-b]quinazoline]	< 50 nM	< 50 nM
CC1CCCN1CCCOc1cccc(-c2c3c(nc4ccnn24)CCCCC3)c1 (centres unmarked) [10-{3-[3-(2-Methyl-pyrrolidin-1-yl)-propoxy]-phenyl}-6,7,8,9-tetrahydro-5H-1,4,10a-triaza-cyclohepta[f]indene]	< 5000 nM	
COCCNCCCOc1ccc(-c2c3c(nc4ccnn24)CCCCC3)cc1 [(2-Methoxy-ethyl)-{3-[4-(6,7,8,9-tetrahydro-5H-1,4,10a-triaza-cyclohepta[f]inden-10-yl)-phenoxy]-propyl}-amine]	< 5000 nM	
CCN(CC)CCCOc1cccc(-c2c3c(nc4ccnn24)CCCCC3)c1 [Diethyl-{3-[3-(6,7,8,9-tetrahydro-5H-1,4,10a-triaza-cyclohepta[f]inden-10-yl)-phenoxy]-propyl}-amine]	< 5000 nM	
